Measurements reported in the NIST ThermoML archive (doi:10.1021/acs.jced.5b00303).
Numbers after ± are expanded uncertainties.

Details: Pendant drop shape

## Cn1cc[n+](C)c1.N#C[B-](C#N)(C#N)C#N [1,3-dimethylimidazolium tetracyanoborate]
283.19 K
  surface tension liquid-gas: 35.44 ± 0.8 mN/m
293.24 K
  surface tension liquid-gas: 34.74 ± 0.78 mN/m
303.28 K
  surface tension liquid-gas: 33.67 ± 0.76 mN/m
313.26 K
  surface tension liquid-gas: 33.07 ± 0.75 mN/m
323.17 K
  surface tension liquid-gas: 32.05 ± 0.72 mN/m
333.17 K
  surface tension liquid-gas: 31.37 ± 0.71 mN/m
343.13 K
  surface tension liquid-gas: 30.6 ± 0.69 mN/m
353.24 K
  surface tension liquid-gas: 29.98 ± 0.68 mN/m

## CCCCn1cc[n+](C)c1.N#C[B-](C#N)(C#N)C#N [1-butyl-3-methyl-1H-imidazolium tetracyanoborate]
283.23 K
  surface tension liquid-gas: 45.23 ± 1 mN/m
293.23 K
  surface tension liquid-gas: 44.64 ± 1 mN/m
303.3 K
  surface tension liquid-gas: 43.65 ± 0.98 mN/m
313.24 K
  surface tension liquid-gas: 42.62 ± 0.95 mN/m
323.24 K
  surface tension liquid-gas: 41.71 ± 0.93 mN/m
333.2 K
  surface tension liquid-gas: 40.81 ± 0.92 mN/m
343.22 K
  surface tension liquid-gas: 39.87 ± 0.89 mN/m
353.3 K
  surface tension liquid-gas: 39.08 ± 0.88 mN/m

## CCn1cc[n+](C)c1.N#C[C-](C#N)C#N [1-ethyl-3-methyl-1H-imidazolium tricyanomethanide]
283.18 K
  surface tension liquid-gas: 51.1 ± 1.2 mN/m
293.25 K
  surface tension liquid-gas: 50.4 ± 1.2 mN/m
303.24 K
  surface tension liquid-gas: 49.39 ± 1.2 mN/m
313.1 K
  surface tension liquid-gas: 48.62 ± 1.2 mN/m
323.08 K
  surface tension liquid-gas: 47.83 ± 1.1 mN/m
333.17 K
  surface tension liquid-gas: 47.19 ± 1.1 mN/m
343.09 K
  surface tension liquid-gas: 46.55 ± 1.1 mN/m
353.36 K
  surface tension liquid-gas: 44.68 ± 1.1 mN/m

## CCn1cc[n+](C)c1.N#C[B-](C#N)(C#N)C#N [1-ethyl-3-methylimidazolium tetracyanoborate]
283.1 K
  surface tension liquid-gas: 49.66 ± 1.1 mN/m
293.26 K
  surface tension liquid-gas: 48.72 ± 1.1 mN/m
303.35 K
  surface tension liquid-gas: 47.57 ± 1.1 mN/m
313.29 K
  surface tension liquid-gas: 46.45 ± 1 mN/m
323.2 K
  surface tension liquid-gas: 45.67 ± 1 mN/m
333.09 K
  surface tension liquid-gas: 44.87 ± 1 mN/m
343.12 K
  surface tension liquid-gas: 44.04 ± 0.99 mN/m
353.45 K
  surface tension liquid-gas: 43.4 ± 0.97 mN/m

## CCCCCCn1cc[n+](C)c1.N#C[B-](C#N)(C#N)C#N [1-hexyl-3-methylimidazolium tetracyanoborate]
283.27 K
  surface tension liquid-gas: 41.99 ± 0.94 mN/m
293.29 K
  surface tension liquid-gas: 41.32 ± 0.93 mN/m
303.27 K
  surface tension liquid-gas: 40.4 ± 0.91 mN/m
313.29 K
  surface tension liquid-gas: 39.39 ± 0.88 mN/m
323.26 K
  surface tension liquid-gas: 38.6 ± 0.87 mN/m
333.2 K
  surface tension liquid-gas: 37.61 ± 0.85 mN/m
343.18 K
  surface tension liquid-gas: 37 ± 0.83 mN/m
353.25 K
  surface tension liquid-gas: 35.86 ± 0.81 mN/m

## CCCCCCCCn1cc[n+](C)c1.N#C[B-](C#N)(C#N)C#N [1-methyl-3-octylimidazolium tetracyanoborate]
283.23 K
  surface tension liquid-gas: 38.64 ± 0.87 mN/m
293.32 K
  surface tension liquid-gas: 38.01 ± 0.85 mN/m
303.3 K
  surface tension liquid-gas: 36.81 ± 0.83 mN/m
313.27 K
  surface tension liquid-gas: 36.18 ± 0.81 mN/m
323.23 K
  surface tension liquid-gas: 35.19 ± 0.79 mN/m
333.18 K
  surface tension liquid-gas: 34.15 ± 0.77 mN/m
343.21 K
  surface tension liquid-gas: 33.44 ± 0.75 mN/m
353.28 K
  surface tension liquid-gas: 32.41 ± 0.73 mN/m

## CCCCCCCCn1cc[n+](C)c1.N#CC(=C=[N-])C#N [1-methyl-3-octylimidazolium tricyanomethanide]
283.28 K
  surface tension liquid-gas: 40.07 ± 0.96 mN/m
293.21 K
  surface tension liquid-gas: 39.03 ± 0.94 mN/m
303.32 K
  surface tension liquid-gas: 38.38 ± 0.92 mN/m
313.21 K
  surface tension liquid-gas: 37.65 ± 0.91 mN/m
323.12 K
  surface tension liquid-gas: 36.89 ± 0.89 mN/m
333.1 K
  surface tension liquid-gas: 36.09 ± 0.87 mN/m
343.16 K
  surface tension liquid-gas: 35.31 ± 0.85 mN/m
353.03 K
  surface tension liquid-gas: 34.89 ± 0.84 mN/m

## CCCCCC[n+]1ccn(C)c1.N#C[C-](C#N)C#N [3-hexyl-1-methylimidazolium tricyanomethanide]
283.23 K
  surface tension liquid-gas: 44.44 ± 1.1 mN/m
293.35 K
  surface tension liquid-gas: 43.55 ± 1 mN/m
303.33 K
  surface tension liquid-gas: 42.88 ± 1 mN/m
313.26 K
  surface tension liquid-gas: 42.09 ± 1 mN/m
323.25 K
  surface tension liquid-gas: 41.49 ± 1 mN/m
333.18 K
  surface tension liquid-gas: 40.8 ± 0.98 mN/m
343.11 K
  surface tension liquid-gas: 39.91 ± 0.96 mN/m
353.53 K
  surface tension liquid-gas: 39.07 ± 0.94 mN/m
